From ChEMBL document CHEMBL1150636, “Antiemetic principles of Alpinia officinarum” (2002)

test system: Gallus gallus; test: Antiemetic activity against copper sulphate-induced emesis in young chicks assessed as decrease in retching at 50 mg/kg, ip measured for 10 mins; type: functional; details: route intraperitoneal

Which inhibition in vivo at 50 mg/kg does the source give for `Oc1ccc(CC[C@@H](O)C[C@H](O)CCc2ccccc2)cc1` here?
The inhibition in vivo at 50 mg/kg was 37.7%.

Which inhibition in vivo at 50 mg/kg does the source give for `COc1cc(CC[C@@H](O)CC(=O)CCc2ccc(O)cc2)ccc1O` here?
The inhibition in vivo at 50 mg/kg was 38.3%.

Which inhibition in vivo at 50 mg/kg does the source give for `COc1cc(CCC(=O)C[C@H](O)CCc2ccc(O)cc2)ccc1O` here?
Its inhibition in vivo at 50 mg/kg is 12.4%.

How did the inhibition in vivo at 50 mg/kg turn out when `COc1cc(CCC(O)CC(O)CCc2ccccc2)ccc1O` (stereo not drawn) was run?
The inhibition in vivo at 50 mg/kg was 45.7%.

For `CCCCCCCCCCCCCCCC(=O)OC[C@H]1O[C@@H](O[C@H]2CC[C@@]3(C)C(=CC[C@H]4[C@@H]5CC[C@H]([C@H](C)CC[C@H](CC)C(C)C)[C@@]5(C)CC[C@@H]43)C2)[C@H](O)[C@@H](O)[C@@H]1O`, which inhibition in vivo at 50 mg/kg is on record?
Its inhibition in vivo at 50 mg/kg is 50.9%.

test system: Gallus gallus; test: Antiemetic activity against copper sulfate-induced emesis in young chicks assessed as decrease in retching at 20 mg/kg, ip measured for 10 mins; type: functional; details: route intraperitoneal

`O=C(CCc1ccccc1)CC(O)CCc1ccc(O)cc1` (stereo not drawn) was tested. Which inhibition in vivo at 20 mg/kg did it give?
Its inhibition in vivo at 20 mg/kg is 71%.

How did the inhibition in vivo at 20 mg/kg turn out when `O=c1c(O)c(-c2ccccc2)oc2cc(O)cc(O)c12` [GALANGIN] was run?
The inhibition in vivo at 20 mg/kg was 25.4%.

With `COc1ccc(-c2oc3cc(O)cc(O)c3c(=O)c2O)cc1` [KAEMPFERIDE] as the compound, how does the inhibition in vivo at 20 mg/kg read?
Its inhibition in vivo at 20 mg/kg is 63.3%.
